Measurements published in patent US10420758B2, “Indolinyl-sulfonamide inhibitors of tankyrase and methods of use thereof” (The Board of Regents of the University of Texas System, priority 2015, dated 2019).

Key:
PARP6 = PARP6 (Homo sapiens, UniProt Q2NL67); assay: PARP profiling, parsylation of immobilized histone; assay type: biochemical; settings: IWR compounds 10 μM
Method: (§1) Performed by BPS Bioscience Inc., San Diego by following the BPS PARP or TNKS assay kit protocols. The enzymatic reactions were conducted in duplicate at room temperature for 1 hr in a 96 well plate coated with histone substrate. […] of reaction buffer (Tris.HCl, pH 8.0) contains NAD^+, biotinylated NAD^+, activated DNA, recombinant PARP enzyme and 10 μM of the test compound. […] After enzymatic reactions, 50 μL of Streptavidin-horseradish peroxidase was added to each well and the plate was incubated at room temperature for an additional 30 min. 100 μL of developer reagents were added to wells and luminescence was measured using a BioTek Synergy™ 2 microplate reader.

TNKS1 = TNKS1 (Homo sapiens, UniProt O95271); assay: PARP profiling, parsylation of immobilized histone; assay type: biochemical; settings: IWR compounds 10 μM
Method: as §1

TNKS2 = TNKS2 (Homo sapiens, UniProt Q9H2K2); assay: PARP profiling, parsylation of immobilized histone; assay type: biochemical; settings: IWR compounds 10 μM
Method: as §1

[1] = target: T1, purified Tnks1 SAM-PARP protein (Homo sapiens, UniProt O95271); assay: In vitro Tnks activity assay, histone parsylation (HT Universal Color PARP Assay Kit); assay type: biochemical; settings: parsylation of immobilized histone, colorimetric, FIG. 2A
T1 construct: purified Tnks1 SAM-PARP protein; provided by Herwig Schüler (gift, not a vendor)

[2] = system: β-catenin activity in DLD-1 cells; assay: Wnt/β-catenin specific luciferase reporter (SuperTopFlash) in DLD-1 cells; assay type: cell-based; settings: FIG. 2B
Method: Representative IWRs from each chemotype were evaluated for their ability to inhibit purified recombinant Tnks1 protein (Tnks1 […] protein). Parsylation of immobilized histone protein was determined by colorimetric detection of incorporated biotinylated NAD+ in 96 well format.
Luciferase Reporter Assays.
Assays were executed as described using a Dual Luciferase kit (Promega), and SuperTopFlash and control SV40-driven Renilla luciferase reporters (SV40-Ren luc) (Chen, et al., 2009).

SW403 cells = assay: Cell growth of SW403 cells; assay type: cell-based; settings: FIG. 2C
[3] = system: panel of recombinant PARP proteins; assay: Overall specificity in panel of recombinant PARP proteins; assay type: biochemical; settings: 10 μM, panel covers 70% of the protein family
Method: as §1
The higher level of conservation between the NI-binding pocket in PARPs as compared to the AD-binding pocket likely imposes greater challenges to achieving specificity with NI-binding pocket inhibitors (Wahlberg, et al., 2012). […] At the same time, the discovery of structurally distinct chemicals both capable of binding the AD-binding pocket in a similar fashion (IWR-1 and IWR-8) afforded an opportunity to evaluate the strength of this hypothesis.

[4] = target: T2, catalytic domain of human Tnks1 (Homo sapiens, UniProt O95271); assay: Crystal structures of IWR compound/Tnks1 complexes, binding pocket; settings: crystal structure, FIGS. 3A-3C
T2 construct: The catalytic domain of human Tnks1 (residues 1105-1313) was expressed; His6 (with TEV site) (N, cleaved yes); made in house; host or cells: E. coli BL21 (DE3)
Method: Protein Expression and Purification.
The catalytic domain of human Tnks1 (residues 1105-1313) was expressed by using a modified pET28 vector, which encodes an N-terminal His6-tag and a cleavage site for the Tobacco Etch Virus (TEV) protease. Protein expression was induced by 0.1 mM IPTG at 15° C. when the culture of the bacteria strain BL21 (DE3) transformed with the plasmid reached O.D. of 1.5. Cells were harvested 12 hrs after induction and lysed by Frenchpressing. The lysate was cleared by centrifugation at 15000 rpm for 1 hr. The protein was purified by Ni-NTA-based affinity chromatography and ion exchange chromatography. The N-terminal His6-tag was removed by overnight TEV protease treatment at 4° C. Purified protein was concentrated and stored in −80° C.
Crystallization, Data Collection and Structure Determination.
The purified Tnks1 catalytic domain at 5 mg/mL (0.22 mM) mixed with IWR-1 (the exo-form), IWR-3 and IWR-8 at 0.25 mM were subjected to crystallization trials by using sitting-drop 96-well plates. Following initial hits of crystallization, large crystals were obtained by hanging-drop vapor diffusion in conditions optimized based on the initial conditions. Crystals of the Tnks1/IWR-1 complex were grown at 20° C. in 0.1 M Bis-Tris (pH 5.3), 0.15 M MgCl2 and 20-23% PEG3350. […]

[5] = system: Tnks 1 and 2, Axin, β-catenin in SW480 cells; assay: Western blot of Tnks, Axin and β-catenin levels in SW480 cells; assay type: cell-based; settings: SW480 cells (truncated Apc), FIG. 1A
Method: (FIG. 1A) Biochemical markers of Tnks inhibition associated with the Wnt/β-catenin pathway. […] (FIG. 1B) A biochemical screen to identify additional Tnks inhibitors from the IWR collection of Wnt pathway inhibitors. The effects of the IWR compounds on Tnks 1 and 2, β-catenin, and acetylated tubulin (Ac-Tub; loading control) expression levels were determined in SW480 cells by Western blot analysis.
For Western blot analysis cell lysates were generated with either PBS-NP40 buffer [phosphate-buffered saline (PBS)/1% NP40], or Tris-Triton X-100 buffer [50 mM Tris (pH 8), 200 mM NaCl, 1 mM EDTA, 1% Triton X-100, 10% glycerol, 1 mM DTT, 0.5 mM deoxycholate]. Both buffers were supplemented with protease inhibitor cocktail (Sigma). […] The lysates were cleared by centrifugation at 15,000 rpm for 10 min.

Axin2 in DLD-1 cells = assay: Expression of Axin2 in DLD-1 cells; assay type: cell-based; settings: exposure for 2 h
Description: Aberrant transcriptional induction of Wnt/β-catenin target genes is typically observed in CRC cells that harbor loss-of-function mutations in the APC tumor suppressor. […] See Chen et al. (2007), which is incorporated herein by reference.

zebrafish = assay: Zebrafish caudal fin regeneration after chemical removal; assay type: in vivo; settings: resected caudal fins, water containing compound for 7 d, then removal
Description: Achieving transient repression of pathological Wnt response without incurring permanent damage to normal stem cell function is a key anticancer therapeutic goal.

PARP6, sequence (Q2NL67 whole entry): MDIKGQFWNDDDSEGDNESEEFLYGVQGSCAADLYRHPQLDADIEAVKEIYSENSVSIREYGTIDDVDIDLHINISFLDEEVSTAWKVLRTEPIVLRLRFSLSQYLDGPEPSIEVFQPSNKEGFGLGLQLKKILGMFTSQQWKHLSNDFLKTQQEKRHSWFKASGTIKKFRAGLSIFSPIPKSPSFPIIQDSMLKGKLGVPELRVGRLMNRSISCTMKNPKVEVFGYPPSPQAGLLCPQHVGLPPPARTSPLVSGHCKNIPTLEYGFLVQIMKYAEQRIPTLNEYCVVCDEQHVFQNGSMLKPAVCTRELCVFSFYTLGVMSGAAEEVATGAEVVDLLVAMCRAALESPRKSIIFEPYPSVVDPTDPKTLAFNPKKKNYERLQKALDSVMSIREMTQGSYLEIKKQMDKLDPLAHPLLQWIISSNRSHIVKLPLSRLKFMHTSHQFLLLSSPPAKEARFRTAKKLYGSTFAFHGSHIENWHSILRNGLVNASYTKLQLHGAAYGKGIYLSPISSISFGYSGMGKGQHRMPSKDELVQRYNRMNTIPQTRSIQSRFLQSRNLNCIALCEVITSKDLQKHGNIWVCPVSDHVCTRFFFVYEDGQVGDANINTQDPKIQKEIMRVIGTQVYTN
TNKS2, sequence (Q9H2K2 whole entry): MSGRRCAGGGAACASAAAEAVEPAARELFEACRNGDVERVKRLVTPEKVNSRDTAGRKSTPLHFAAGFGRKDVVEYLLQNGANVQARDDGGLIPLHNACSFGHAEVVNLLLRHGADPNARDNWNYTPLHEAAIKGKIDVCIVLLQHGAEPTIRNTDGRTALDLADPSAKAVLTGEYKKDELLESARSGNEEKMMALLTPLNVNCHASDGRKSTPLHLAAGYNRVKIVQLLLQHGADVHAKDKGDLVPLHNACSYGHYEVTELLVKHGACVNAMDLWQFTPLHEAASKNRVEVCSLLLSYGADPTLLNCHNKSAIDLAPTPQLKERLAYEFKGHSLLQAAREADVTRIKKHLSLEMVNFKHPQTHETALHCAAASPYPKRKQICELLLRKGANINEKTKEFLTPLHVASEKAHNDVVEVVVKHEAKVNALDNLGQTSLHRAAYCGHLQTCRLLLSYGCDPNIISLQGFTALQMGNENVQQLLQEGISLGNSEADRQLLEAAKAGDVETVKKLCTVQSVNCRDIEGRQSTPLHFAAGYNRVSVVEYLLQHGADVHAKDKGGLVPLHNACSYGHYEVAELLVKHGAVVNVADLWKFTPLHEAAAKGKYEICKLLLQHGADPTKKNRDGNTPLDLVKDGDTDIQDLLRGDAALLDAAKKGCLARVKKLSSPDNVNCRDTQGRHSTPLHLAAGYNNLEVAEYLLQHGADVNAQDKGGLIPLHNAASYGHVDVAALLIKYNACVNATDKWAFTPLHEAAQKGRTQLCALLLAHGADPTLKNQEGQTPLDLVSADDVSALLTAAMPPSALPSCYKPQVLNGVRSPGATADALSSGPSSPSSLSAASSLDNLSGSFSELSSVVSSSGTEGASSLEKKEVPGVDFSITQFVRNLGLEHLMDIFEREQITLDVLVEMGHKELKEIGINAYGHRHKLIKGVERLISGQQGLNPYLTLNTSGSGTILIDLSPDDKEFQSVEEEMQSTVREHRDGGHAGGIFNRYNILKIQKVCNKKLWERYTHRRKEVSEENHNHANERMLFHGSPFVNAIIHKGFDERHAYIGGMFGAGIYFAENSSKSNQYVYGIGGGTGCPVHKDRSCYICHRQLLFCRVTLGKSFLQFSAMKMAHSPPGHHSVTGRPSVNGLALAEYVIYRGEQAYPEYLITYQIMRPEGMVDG
T1 sequence (O95271 1030-1317 limits assumed): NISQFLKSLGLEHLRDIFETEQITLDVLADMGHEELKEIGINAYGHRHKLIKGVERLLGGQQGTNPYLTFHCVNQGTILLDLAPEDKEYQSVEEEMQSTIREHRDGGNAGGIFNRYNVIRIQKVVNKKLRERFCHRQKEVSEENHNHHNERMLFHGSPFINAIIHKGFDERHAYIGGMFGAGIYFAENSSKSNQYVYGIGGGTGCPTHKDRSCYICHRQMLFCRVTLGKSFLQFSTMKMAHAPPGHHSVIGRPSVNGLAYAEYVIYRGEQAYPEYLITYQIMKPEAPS
TNKS1, sequence (O95271 whole entry): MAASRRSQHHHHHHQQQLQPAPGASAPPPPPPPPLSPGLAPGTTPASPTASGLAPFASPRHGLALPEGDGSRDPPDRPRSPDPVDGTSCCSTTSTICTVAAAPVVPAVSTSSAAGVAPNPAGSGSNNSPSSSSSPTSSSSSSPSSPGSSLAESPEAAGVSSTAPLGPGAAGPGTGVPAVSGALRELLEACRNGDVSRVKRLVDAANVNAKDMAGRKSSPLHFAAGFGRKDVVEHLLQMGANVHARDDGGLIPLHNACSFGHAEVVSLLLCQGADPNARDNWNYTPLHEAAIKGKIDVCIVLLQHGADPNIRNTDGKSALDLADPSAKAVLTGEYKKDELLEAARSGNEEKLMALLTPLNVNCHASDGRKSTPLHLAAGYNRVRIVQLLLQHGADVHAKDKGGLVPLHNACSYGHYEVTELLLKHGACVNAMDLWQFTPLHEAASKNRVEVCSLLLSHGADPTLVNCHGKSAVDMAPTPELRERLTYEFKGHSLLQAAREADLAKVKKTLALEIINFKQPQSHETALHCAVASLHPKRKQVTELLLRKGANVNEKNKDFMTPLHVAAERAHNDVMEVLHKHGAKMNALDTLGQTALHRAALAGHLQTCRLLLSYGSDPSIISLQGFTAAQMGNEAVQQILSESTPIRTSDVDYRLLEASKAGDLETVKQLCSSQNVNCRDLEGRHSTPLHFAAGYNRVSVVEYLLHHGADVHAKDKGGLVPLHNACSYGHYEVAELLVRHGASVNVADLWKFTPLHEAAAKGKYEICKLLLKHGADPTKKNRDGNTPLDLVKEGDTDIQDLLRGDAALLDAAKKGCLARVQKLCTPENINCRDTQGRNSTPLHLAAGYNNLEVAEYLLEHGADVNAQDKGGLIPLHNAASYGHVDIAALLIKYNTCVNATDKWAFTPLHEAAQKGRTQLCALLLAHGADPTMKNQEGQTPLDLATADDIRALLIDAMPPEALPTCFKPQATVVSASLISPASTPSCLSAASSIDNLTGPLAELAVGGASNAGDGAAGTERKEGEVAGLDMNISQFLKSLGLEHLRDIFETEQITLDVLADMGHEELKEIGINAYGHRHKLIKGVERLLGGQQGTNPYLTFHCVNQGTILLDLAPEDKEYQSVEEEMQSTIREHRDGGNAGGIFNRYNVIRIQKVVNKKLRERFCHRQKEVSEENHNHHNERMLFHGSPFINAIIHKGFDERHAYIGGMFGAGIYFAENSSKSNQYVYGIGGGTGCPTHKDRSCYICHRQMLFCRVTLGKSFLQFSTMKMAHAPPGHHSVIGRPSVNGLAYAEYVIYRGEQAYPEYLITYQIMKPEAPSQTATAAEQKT
T2 sequence (O95271 1105-1313): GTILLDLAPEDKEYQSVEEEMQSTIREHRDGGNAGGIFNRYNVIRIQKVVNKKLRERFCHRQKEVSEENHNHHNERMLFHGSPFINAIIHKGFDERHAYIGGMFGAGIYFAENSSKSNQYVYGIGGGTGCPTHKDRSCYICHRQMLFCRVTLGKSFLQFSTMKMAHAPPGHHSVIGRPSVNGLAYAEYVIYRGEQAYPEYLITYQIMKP

Structure (SMILES): CCN(C(=O)C1CCN(S(=O)(=O)c2cc3c(cc2Br)CCN3C(C)=O)CC1)c1cccc(C)c1 [IWR-8]
- inhibition at 10 µM (PARP6): 0%
- inhibition at 10 µM (TNKS1): 99%
- inhibition at 10 µM (TNKS2): 99%
- ability to inhibit purified recombinant Tnks1 protein [1]: directly target Tnks
- β-catenin activity induced by loss of APC function [2]: inhibits β-catenin activity induced by loss of APC function
- cell growth in a cancer cell line with compromised APC function (SW403 cells): inhibits cell growth
- specificity/selectivity across PARP panel [3]: highly specific
- binding pocket engaged in Tnks1 [4]: engage the AD pocket

Structure (SMILES): O=C(Nc1cccc2cccnc12)c1ccc(N2C(=O)[C@@H]3[C@H](C2=O)[C@@H]2C=C[C@H]3C2)cc1 [IWR-1]
- % inhibition (PARP6): 0%
- Tnks and Axin protein levels [5]: induce stabilization of both Tnks enzymes and Axin proteins
- β-catenin protein level [5]: promote destruction of β-catenin
- expression of Axin2 (Axin2 in DLD-1 cells): decrease in the expression of Axin2
- fin regeneration after chemically induced blockade (zebrafish): able to regenerate tissue to nearly normal levels after chemical removal
- specificity/selectivity across PARP panel [3]: highly specific
